These are literature values, as cited in the CATMoS acute toxicity set (Mansouri et al. 2021).

“And” between values parts separate entries of the source, which are not always exact repeats. Equal values may be shown once.

The data set in a line: rat acute oral toxicity. Particulars: in vivo. The source says: […]The data set underlying the modeling effort for this project was initially compiled by NICEATM and U.S. EPA’s CCTE. Briefly, LD50 data were collected from rat acute oral systemic toxicity tests, including limit tests, ranges/confidence intervals, and discrete LD50 values. The full data set included 21,200 LD50 entries for 15,688 substances. […] Data were reviewed to ensure that LD50 values with obvious errors in the extracted data such as unit conversion errors (e.g., comma and decimal separator misplacements) were either fixed or removed. After this review, 16,209 LD50 values remained. Many of the chemicals represented had multiple LD50 entries, requiring that a single representative value per Chemical Abstracts Service Registry Number (CASRN) identifier be defined to facilitate modeling efforts. Based on ATWG feedback and to define the representative LD50 as a protective value while accounting for the distribution across multiple LD50s, the median of the lowest quartile was computed using only discrete LD50 values (omitting limit test data and range and confidence interval data). A detailed summary of the data compilation is available online on the NICEATM webpage dedicated to the collaborative modeling project (NTP 2020).
[…][…] For categorical designations, limit test and range/confidence interval LD50 data were integrated wherever possible. As such, the number of chemicals with end point values/calls varies across the modeling end points (Table 3) based on whether chemicals had representative LD50 values and/or other data. If a chemical had both, the representative value was used to determine categorical calls rather than limit test data. Some data were useable only for certain end points and categories depending on the thresholds. For example, ranges that spanned multiple hazard categories were considered only for the binary (very toxic/nontoxic) end points and omitted from rendering a determination for hazard category assignment.
[…]The final data set comprising 11,992 chemicals was split into training and evaluation sets […], respectively. This process was performed semirandomly by ordering chemicals based on the five end points (categorical and continuous LD50 values) and partitioning every fourth record into the evaluation set accordingly. This approach was taken to ensure an equivalent distribution of the LD50 values and the different hazard categories between the training and the evaluation sets without supervised sampling of the chemicals based on structures (Figure 1A). The sources of the chemical structures were also kept equivalent between the two sets, with chemical structures obtained from DSSTox, being the highest quality, representing over 75% of each set (Figure 1B).
Usually LD50 stands for the dose expected to kill half of the subjects tested. For the compound `NCC(=O)O`, the median lethal dose (LD50) is 7930 mg/kg and 3340 mg/kg.

In the case of `Cc1ccccc1N=Nc1c(N)ccc2ccccc12`, the LD50 was 120 mg/kg.

Regarding `CCCCNS(=O)(=O)c1ccccc1`, the LD50 was 2050 mg/kg.

`CC(Cc1ccccc1)NCC1COc2ccccc2C1=O` (stereo not drawn): the LD50 was 500 mg/kg.

In the case of `COP(=S)(OC)SCn1nc(-c2ccccc2)ccc1=O`, the LD50 was 18800 mg/kg.

For the compound `COc1ccc2c3c1O[C@H]1[C@@H](O)C=C[C@H]4[C@@H](C2)[N@@+](C)([O-])CC[C@@]341`, the LD50 was 1600 mg/kg.

As to `CC(C)CCOC=O`, the LD50 is 9840 mg/kg.

As for `CN(C)c1ccc(C=Cc2ccccc2)cc1`, the LD50 is 50 mg/kg.

As for `CC(C)N(Sc1nc2ccccc2s1)C(C)C`, the LD50 is 5200 mg/kg.

As for `FC(F)(F)c1nc2ccc(I)cc2[nH]1`, the LD50 is 96 mg/kg.

For `Cc1nc(C)c(C)nc1C`, the LD50 was 1910 mg/kg.

`O=NN(Cc1ccccc1)Cc1ccccc1`: the LD50 is 900 mg/kg.

As to `Cc1ccc(C#N)cc1`, the LD50 is 3800 mg/kg.

Consider `CCN(CC)S(=O)(=O)c1c(Cl)c(Cl)c(Cl)c2[nH]c(C(F)(F)F)nc12`, for which the LD50 is 11.2 mg/kg.

For the compound `O=C1OC(CCN2CCCCC2)OC1(c1ccccc1)c1ccccc1` (stereo not drawn), the LD50 is 1500 mg/kg.

Take `CN1CCN(N=O)CC1`: the LD50 was 100 mg/kg.

As for `NCC(O)c1cccc(O)c1` (stereo not drawn), the LD50 was 390 mg/kg.

Regarding `CC1CC(C)(C)OB(OC(C)CC(C)(C)OB2OC(C)CC(C)(C)O2)O1` (stereo not drawn), the LD50 is 4720 mg/kg.

For the compound `C=C(C)C(=O)OCCCl`, the LD50 is 200 mg/kg.

As to `CCCSP(=S)(OCC)Oc1ccc(Cl)cc1Cl` (stereo not drawn), the LD50 was 875 mg/kg.

`COCc1c(CO)cnc(C)c1O`: the LD50 was 2150 mg/kg.

As to `CC(Oc1ccc(Oc2ccc(Cl)cc2)cc1)C(=O)O` (stereo not drawn), the LD50 was 1200 mg/kg.

With `CCOC(=O)Nc1ccc2c(c1)N(C(=O)CCN1CCN(CCO)CC1)c1ccccc1CC2`, the LD50 is 147 mg/kg.

In the case of `OCCN1CC1`, the LD50 is 74 mg/kg.

Consider `CCc1c(C)nc2cc(C)cc(C)n2c1=O`, for which the 50% lethal dose (LD50) was 1500 mg/kg.

For the compound `COc1c(Cl)ccc(Cl)c1C(=O)O`, the LD50 was 6760 mg/kg and 2630 mg/kg.

Regarding `CC(C(=O)O)c1ccc(-n2cc3ccccc3n2)cc1` (stereo not drawn), the LD50 is 1550 mg/kg.

As for `N#CC(Cl)(Cl)Cl`, the LD50 is 250 mg/kg.

Take `CCOC(=O)c1nocc1C(=O)c1ccccc1`: the LD50 is 1000 mg/kg.

With `CCCCCOC(=O)CCC`, the LD50 is 12200 mg/kg.

Turning to `CCCCC(CC)(C(=O)OCC)C(=O)OCCN(CC)CC` (stereo not drawn), the LD50 was 638 mg/kg.

Turning to `CC(C)(C)c1cc(CCC(=O)NCCN)cc(C(C)(C)C)c1O`, the LD50 was 1560 mg/kg.

Take `CCCN(CCC)C(=O)C(CCC(=O)O)NC(=O)c1ccccc1` (stereo not drawn): the LD50 was 20000 mg/kg and 8200 mg/kg.

`CC(C)CC(C)OC(=O)/C=C\C(=O)OC(C)CC(C)C` (stereo not drawn): the LD50 is 7340 mg/kg.

For `C1CCCCC1`, the LD50 is 12700 mg/kg.

`N#CN=c1ccccn1Cc1ccccc1Cl`: the LD50 is 500 mg/kg.

For the compound `N#CCN(CC#N)N=O`, the LD50 is 163 mg/kg.

Regarding `COc1ccc(C(O)(c2cncnc2)C2CC2)cc1` (stereo not drawn), the LD50 is 4500 mg/kg.

As to `CCOP(=S)(Oc1ccc([N+](=O)[O-])cc1)Oc1ccc([N+](=O)[O-])cc1`, the LD50 was 66.9 mg/kg.

Consider `CCCCCCCCCCOCCCN(C(=O)CC(C(=O)O)S(=O)(=O)O)C(CC(=O)OCC)C(=O)OCC` (stereo not drawn), for which the LD50 was 16200 mg/kg.

As to `CCCCCOC(C[n+]1ccccc1)c1ccc(C2CCCC2)cc1` (stereo not drawn), the LD50 was 250 mg/kg.

On to `CC(C)CC(C)CC(CC(C)C)OCCO` (stereo not drawn), for which the LD50 was 5650 mg/kg.

As for `O=P(O)(O)OC(=CCl)c1ccc(Cl)cc1Cl`, the LD50 is 13 mg/kg.

Take `OC(CCN1CCCCC1)(c1ccccc1)C1CC2C=CC1C2` (stereo not drawn): the LD50 is 750 mg/kg.

With `CCCC(C)C(=O)O` (stereo not drawn), the LD50 is 2040 mg/kg.

Take `CCOc1ccc(N(N=O)C(C)=O)cc1`: the LD50 was 21 mg/kg.

`ClCCOCCOCCCl`: the LD50 was 250 mg/kg.

Turning to `OCC(Cl)CCl` (stereo not drawn), the LD50 is 90 mg/kg.

As to `CCOCOC(=O)c1ccccc1Nc1c(Cl)ccc(C)c1Cl`, the LD50 was 307 mg/kg.

Take `Cn1cc(C(O)=Nc2cccc3c2C2CCC3C2=C(Cl)Cl)c(C(F)F)n1` (stereo not drawn): the LD50 is 55 mg/kg.

Regarding `CCOC(=O)C1(c2ccccc2)CCN(CCC(C#N)(c2ccccc2)c2ccccc2)CC1`, the LD50 is 221 mg/kg.

`NCCOCNc1ccccc1`: the LD50 is 0.625 mg/kg.

Turning to `Cc1ccc(OCC(=O)N[C@@H]2C(=O)N3[C@@H]2SC(C)(C)[C@@H]3C(=O)O)cc1Cl`, the LD50 is 2250 mg/kg.

On to `OCCCc1ccccc1`, for which the LD50 was 2300 mg/kg.

Turning to `CCCC(C(=O)OCCN(CC)CC)(c1ccccc1)c1ccccc1`, the LD50 is 2140 mg/kg.

With `CCOP(=O)(OCC)Oc1cc(C)oc(=O)c1`, the LD50 is 3.34 mg/kg.

In the case of `O[C@H](c1cc(-c2ccc(C(F)(F)F)cc2)nc(C(F)(F)F)c1)[C@H]1CCCCN1`, the LD50 was 518 mg/kg.

Take `CO[Si](CCl)(OC)OC`: the LD50 was 500 mg/kg.

Take `CCOC(=O)C(C#N)C(C)=O` (stereo not drawn): the LD50 is 500 mg/kg.

For the compound `O=C1c2ccccc2C(=O)C1c1ccccc1`, the LD50 is 163 mg/kg.

As to `CC(C)(Oc1ccc(Cl)cc1)C(=O)OCc1cccc(CO)n1`, the LD50 was 1250 mg/kg.

Turning to `CN(C)CC(=O)N1Cc2ccccc2CC2CCCCC21` (stereo not drawn), the LD50 was 1400 mg/kg.

On to `c1ccc(C2=NCOCS2)cc1`, for which the LD50 is 650 mg/kg.

As for `COc1ccc(CCl)cc1OC`, the LD50 was 4700 mg/kg.

Turning to `CCCCCOC(=S)S`, the LD50 is 1000 mg/kg.

Regarding `c1ccc([B-](c2ccccc2)(c2ccccc2)c2ccccc2)cc1`, the LD50 was 288 mg/kg.

`C[C@@H](N)[C@@H](O)c1ccccc1`: the LD50 is 1490 mg/kg.

On to `Cc1ncc2coc(OCCO)c2c1O`, for which the LD50 was 2200 mg/kg.

For `CN(C)C(=O)C(CCN1CCC(O)(c2ccc(Cl)cc2)CC1)(c1ccccc1)c1ccccc1`, the LD50 is 185 mg/kg and 98 mg/kg.

`BrC=CBr`: the LD50 is 117 mg/kg and 62 mg/kg.

On to `CCOc1ccccc1N1CCN(CCCCc2ccc3c(c2)CCC(=O)N3)CC1`, for which the LD50 is 500 mg/kg.

As to `CO[C@H]1CC[C@H](O[C@@]2(C)[C@H](C[C@@H]3C[C@@H](OC)[C@@H](C)[C@]4(O3)O[C@](C)(C3CC[C@@H]([C@H]5CC[C@H](C6O[C@](C)(O)[C@H](C)C[C@@H]6C)O5)O3)[C@H](OC)[C@H]4C)O[C@](O)([C@@H](C)C(=O)O)[C@H](C)[C@@H]2OC)O[C@@H]1C` (stereo partly drawn), the LD50 was 10 mg/kg.

For the compound `CCCCSC(=O)Oc1c(C(C)CC)cc([N+](=O)[O-])cc1[N+](=O)[O-]` (stereo not drawn), the LD50 is 147 mg/kg.

Regarding `CN1CCN(CCCCCCCCNC(=O)Oc2ccc3c(c2)C2(C)CCN(C)C2N3C)CC1` (stereo not drawn), the LD50 is 27.7 mg/kg.

Consider `O=[N+]([O-])c1cc(I)c(O)c(I)c1`, for which the LD50 is 170 mg/kg.

Consider `COc1ccccc1-c1ccccc1`, for which the LD50 is 3600 mg/kg.

Turning to `CCCCCCCCSC(=O)Oc1cc(Cl)nnc1-c1ccccc1`, the LD50 was 1970 mg/kg.

With `CN1CCN(CC(=O)NN=Cc2ccc([N+](=O)[O-])o2)CC1`, the median lethal dose (LD50) is 1350 mg/kg.

On to `c1cc2c(cc1C1CCCCC1)c1c3n2CCNC3CCC1` (stereo not drawn), for which the LD50 is 3070 mg/kg.

`C[N+]1(CCC(C(N)=O)(c2ccccc2)c2ccccc2)CCCCCC1`: the LD50 was 2800 mg/kg.

On to `CCOC(=O)C1=CN(C(=O)CC)C2CCCC(C)N2C1=O` (stereo not drawn), for which the LD50 was 2970 mg/kg.

Turning to `C=CCC(CC)(CC)C(N)=O`, the LD50 was 400 mg/kg.

In the case of `Cc1ccc(S(=O)(=O)Cl)cc1`, the LD50 was 4680 mg/kg.

As for `CCOC(=S)C=Cc1cc(OC)c(OC)c(OC)c1`, the LD50 was 1000 mg/kg.

Turning to `Cc1ccc(C(=O)c2ccc(CC(=O)NCCn3cnc4c3c(=O)n(C)c(=O)n4C)n2C)cc1`, the LD50 was 1200 mg/kg.

`O=c1[nH]c2[nH]cnc(=O)c2[nH]1`: the LD50 is 1760 mg/kg.

With `CCCn1c(=O)c2[nH]c(C)nc2n(CC(C)C)c1=O`, the LD50 is 19 mg/kg.

As to `CN1CCCN(C(c2ccccc2)c2ccc(Cl)cc2)CC1` (stereo not drawn), the LD50 was 490 mg/kg.

On to `COB(OC)OC`, for which the 50% lethal dose (LD50) was 6140 mg/kg.

Regarding `CCOP(=O)(OCC)OC(=CBr)c1ccc(Cl)cc1Cl`, the LD50 was 21.4 mg/kg.

Take `CCCOc1cc(C=CC(=S)OCC)ccc1OC`: the LD50 is 970 mg/kg.

On to `CCOC(=O)C1(c2ccccc2)CCN(CCc2ccc(N)cc2)CC1`, for which the LD50 was 175 mg/kg.

As for `CN(C)S(=O)(=O)c1c(Cl)c(Cl)c(Cl)c2[nH]c(C(F)(F)F)nc12`, the LD50 was 4.77 mg/kg.

Regarding `CC(C)=C[C@H]1[C@@H](C(=O)OCc2coc(Cc3ccccc3)c2)C1(C)C`, the LD50 was 63 mg/kg.

`CC(C)(N)Cc1ccc(Cl)cc1`: the 50% lethal dose (LD50) is 150 mg/kg and 250 mg/kg.

In the case of `CC(C)(C)[C@@H](O)/C(=C\c1ccc(Cl)cc1Cl)n1cncn1`, the LD50 was 474 mg/kg.

Consider `CN1CCC23CCCCC2C1Cc1ccc(O)cc13` (stereo not drawn), for which the LD50 was 350 mg/kg.

With `Cc1cc(C)c(C)cc1C`, the LD50 is 6990 mg/kg.

Take `CCC(=O)Nc1ccc2nc(C(F)(F)F)[nH]c2c1`: the LD50 is 8.92 mg/kg.

Take `CC1CN1` (stereo not drawn): the LD50 is 19 mg/kg.

For the compound `CCOP(=S)(OCC)SCc1ccc([N+](=O)[O-])cc1`, the LD50 was 100 mg/kg.

As to `CN(C)CCCn1c2c(c3ccccc31)CCCCCC2`, the LD50 was 775 mg/kg.

For the compound `Cc1cc(=O)[nH]o1`, the median lethal dose (LD50) was 3110 mg/kg.
